What was measured:
[1] = test system: Avena fatua; assay: Test 1 greenhouse, postemergence; format: in vivo; details: 21 days, scale 0-100
Description: (§1) Seeds of Bromus tectorum, Kochia scoparia, Salsoa kali, Avena fatua, Convolvulus arvensis, Secale cereale, Setaria viridis and Triticum aestivum were placed in 26-cm plastic pans containing a pasteurized sandy loam soil (pH 6.5, 1% organic matter). Plantings were maintained in the greenhouse for 18-28 days at which time the postemergence treatments were applied using a nonphytotoxic solvent as the carrier for the herbicide. The preemergence segment of the test was seeded immediately before herbicide application using Bromus tectorum, Kochia scoparia, Polygonum convolvulus, Salsoa kali, Avena fatua, Convolvulus arvensis, Secale cereale, Setaria viridis, Aegilops cylindrica, Amaranthus retroflexus, Chenopodium album, Hordeum vulgare, Triticum aestivum, Sorghum bicolor, and Zea mays. All treatments were maintained in the greenhouse for an additional 21 days at which time visual assessment of weed control was determined using a scale of 0 to 100 for each species where 0 represented no control and 100 represented complete control.

[2] = test system: Bromus tectorum; assay: Test 1 greenhouse, postemergence; format: in vivo; details: 21 days, scale 0-100
Description: as §1

[3] = test system: Convolvulus arvensis; assay: Test 1 greenhouse, postemergence; format: in vivo; details: 21 days, scale 0-100
Description: as §1

[4] = test system: Kochia scoparia; assay: Test 1 greenhouse, postemergence; format: in vivo; details: 21 days, scale 0-100
Description: as §1

[5] = test system: Salsoa kali; assay: Test 1 greenhouse, postemergence; format: in vivo; details: 21 days, scale 0-100
Description: as §1

[6] = test system: Secale cereale; assay: Test 1 greenhouse, postemergence; format: in vivo; details: 21 days, scale 0-100
Description: as §1

[7] = test system: Setaria viridis; assay: Test 1 greenhouse, postemergence; format: in vivo; details: 21 days, scale 0-100
Description: as §1

[8] = test system: Triticum aestivum; assay: Test 1 greenhouse, postemergence; format: in vivo; details: 21 days, scale 0-100
Description: as §1

[9] = test system: Russian thistle; assay: Test 7 postemergence; format: in vivo, Salsola spp; details: scale 0-100
Description: (§2) Individual 11.4-cm plastic pots filled with planting medium were seeded with rape, wild radish (Raphanus raphanistruna). tansy mustard (Descurainia pinnata), ball mustard (Neslia paniculata), black mustard (Brassica nigra), yellow mustard, brown mustard, lentils, safflower, flax, sunflower, peanut, vetch, alfalfa, field bean, pea, violet (Viola spp), Kochia (Kochia spp), Russian thistle (Salsola spp), Matricaria spp, groundsel (Senecio spp), shepherdspurse (Capsella bursa-pastoris), nightshade (Solanum spp), sowthistle (Sonchus spp), sugar beet, wheat, "Bonanza" barley and "Morex" barley, Kentucky bluegrass (Poa pratensis), red clover (Trifolium pratense), dandelion (Taraxacum spp) and buckhorn plantain (Plantago lanceolata).
(§3) Plants were treated postemergence with the compound formulated with a non-phytotoxic carrier. Plants were visually rated 18 days after treatment (DAT). Response ratings were based on the scale of 0 to 100 where 0 = no effect, 20 = minimal injury and 100 = complete control.

[10] = test system: Matricaria; assay: Test 7 postemergence; format: in vivo, Matricaria spp; details: scale 0-100
Description: as §2, §3

[11] = test system: Red clover; assay: Test 7 postemergence; format: in vivo, Trifolium pratense; details: scale 0-100
Description: as §2, §3

[12] = test system: Mikanis cordata; assay: Test 9 postemergence; format: in vivo, Mikania cordata; details: scale 0-100
Description: (§4) Plastic windowsill pots containing planting medium were seeded with bahiagrass, bindweed (Convolvulus spp), guinea grass (Panicum maximum), large crabgrass (Digitaria sanguinalis) and pigweed (Amaranthus spp). Individual 15-cm plastic pots contained sandbur (Cenchrus echinatus), Mikania cordata, Boston fern (Nephrolepis exalata), quackgrass (Agropyron repens), elephantgrass (Pennisetum purpureum) and sowthistle (Sonchus spp) plants.
(§5) Plants were treated postemergence with Compound I formulated in a non-phytotoxic solvent. Plants were visually rated 22 days after treatment (DAT). Injury and weed control ratings were based on the scale of 0 to 100 where 0 = no effect, 20 = minimal control and 100 = complete control.

[13] = test system: Coffee; assay: Test 9 postemergence; format: in vivo; details: scale 0-100
Description: as §4, §5

[14] = test system: Wild buckwheat; assay: Test 10 postemergence safety to crops and weed control; format: in vivo, Polygonum convolvulus; details: 16 g/ha, scale 0-100
Description: The object of these tests was to evaluate the compound of this invention for postemergence safety to crops and weed control. Seedling and budded Macedine grapes were grown in 11.4-cm pots. Flax, green foxtail (Setaria viridis), "Morex" barley, wild oats (Avena fatua), "Era" wheat, annual ryegrass (Lolium multiflorum), wild radish (Raphanus raphanistrum), rape, sunflower, chickweed (Stellaria media) and wild buckwheat (Polygonum convolvulus) were seeded in windowsill pots.
The plants were sprayed postemergence with Compound I in a non-phytotoxic solvent. Plants were visually rated 15 and 27 days after treatment (DAT). Injury and weed control ratings were based on the scale of 0 to 100 where 0 = no effect, 20 minimal control and 100 = complete control.

COC(=O)c1cccnc1S(=O)(=O)NC(=O)Nc1nc(OC)cc(OC)n1 [Compound I, 2-[[(4,6-dimethoxypyrimidin-2-yl)aminocarbonyl]aminosulfonyl]-3-pyridinecarboxylic acid, methyl ester]
visual assessment of weed control ([1]; 4 g/ha): 80 | visual assessment of weed control ([1]; 8 g/ha): 80 | visual assessment of weed control ([1]; 16 g/ha): 100 | visual assessment of weed control ([1]; 32 g/ha): 100 | visual assessment of weed control ([1]; 64 g/ha): 100 | visual assessment of weed control ([1]; 125 g/ha): 100 | visual assessment of weed control ([2]; 4 g/ha): 100 | visual assessment of weed control ([2]; 8 g/ha): 100 | visual assessment of weed control ([2]; 16 g/ha): 100 | visual assessment of weed control ([2]; 32 g/ha): 100 | visual assessment of weed control ([2]; 64 g/ha): 100 | visual assessment of weed control ([2]; 125 g/ha): 100 | visual assessment of weed control ([3]; 4 g/ha): 90 | visual assessment of weed control ([3]; 8 g/ha): 100 | visual assessment of weed control ([3]; 16 g/ha): 100 | visual assessment of weed control ([3]; 32 g/ha): 100 | visual assessment of weed control ([3]; 64 g/ha): 100 | visual assessment of weed control ([3]; 125 g/ha): 100 | visual assessment of weed control ([4]; 4 g/ha): 100 | visual assessment of weed control ([4]; 8 g/ha): 100 | visual assessment of weed control ([4]; 16 g/ha): 100 | visual assessment of weed control ([4]; 32 g/ha): 100 | visual assessment of weed control ([4]; 64 g/ha): 100 | visual assessment of weed control ([4]; 125 g/ha): 100 | visual assessment of weed control ([5]; 4 g/ha): 100 | visual assessment of weed control ([5]; 8 g/ha): 100 | visual assessment of weed control ([5]; 16 g/ha): 100 | visual assessment of weed control ([5]; 32 g/ha): 100 | visual assessment of weed control ([5]; 64 g/ha): 100 | visual assessment of weed control ([5]; 125 g/ha): 100 | visual assessment of weed control ([6]; 4 g/ha): 70 | visual assessment of weed control ([6]; 8 g/ha): 100 | visual assessment of weed control ([6]; 16 g/ha): 100 | visual assessment of weed control ([6]; 32 g/ha): 100 | visual assessment of weed control ([6]; 64 g/ha): 100 | visual assessment of weed control ([6]; 125 g/ha): 100 | visual assessment of weed control ([7]; 4 g/ha): 90 | visual assessment of weed control ([7]; 8 g/ha): 90 | visual assessment of weed control ([7]; 16 g/ha): 100 | visual assessment of weed control ([7]; 32 g/ha): 100 | visual assessment of weed control ([7]; 64 g/ha): 100 | visual assessment of weed control ([7]; 125 g/ha): 100 | visual assessment of weed control ([8]; 4 g/ha): 90 | visual assessment of weed control ([8]; 8 g/ha): 100 | visual assessment of weed control ([8]; 16 g/ha): 100 | visual assessment of weed control ([8]; 32 g/ha): 100 | visual assessment of weed control ([8]; 64 g/ha): 100 | visual assessment of weed control ([8]; 125 g/ha): 100 | Plant Injury Rating 18 DAT ([9]; 16 g/ha): 100 | Plant Injury Rating 18 DAT ([9]; 32 g/ha): 100 | Plant Injury Rating 18 DAT ([10]; 16 g/ha): 100 | Plant Injury Rating 18 DAT ([10]; 32 g/ha): 100 | Plant Injury Rating 18 DAT ([11]; 16 g/ha): 100 | Plant Injury Rating 18 DAT ([11]; 32 g/ha): 100 | Plant Injury Rating 22 DAT ([12]; 8 g/ha): 0 | Plant Injury Rating 22 DAT ([12]; 16 g/ha): 0 | Plant Injury Rating 22 DAT ([12]; 32 g/ha): 30 | Plant Injury Rating 22 DAT ([13]; 8 g/ha): 0 | Plant Injury Rating 22 DAT ([13]; 16 g/ha): 0 | Plant Injury Rating 22 DAT ([13]; 32 g/ha): 0 | Plant Injury Rating 15 DAT [14]: 100

Source: patent EP0314302A2, “Herbicidal o-carbomethoxy-sulfonylureas” (E.I. DU PONT DE NEMOURS AND COMPANY, priority 1987, dated 1989)
